Test results as given in US20060165631A1, “Use of oligoglucosamines in cosmetic or dermatological preparations” (priority 2003, published 2006).

System: human keratinocytes
Test: Protection of cells against UV-B rays (cell DNA, LDH and PGE2 release)
Assay type: cell-based
Details: 0.03 % w/v, UVB 50 mJ/cm^2, control with UVB = 100%, without UVB = 0%
Description: The influence of UVB rays on keratinocytes was determined in vitro through the release of cytoplasmatic enzymes, such as LDH (lactate dehydrogenase) for example, which runs parallel to the cell damage and the formation of PGE2. To carry out the test, a keratinocyte culture was mixed with foetal calf serum and inoculated with the test substances after storage at 37° C. in an atmosphere containing 5% CO2. After incubation for 36 h at 37° C. and a CO2 level of 5% by vol., the nutrient medium was replaced by an electrolyte solution and the fibroblasts were damaged with a particular dose of UVB (50 mJ/cm^2; lamp: Duke GL40E). The quantity of keratinocytes was determined after trypsination via a cell counter while the LDH concentration was enzymatically determined.

`CC(=O)Oc1ccccc1C(=O)O` [acetylsalicylic acid] gave an LDH released of 0% and a PGE2 released of 0%.
